For assay [1], the target named is T1, α3β4 nAChR subtype (Rattus norvegicus, UniProt P04757+P12392).
T1 construct: expressed in transfected cells
The assay can be described thus: biochemical. The class given is binding. From the text: (§1) In order to assess the steric and hydropathic effects of the C-5 substituents of the pyridine on the binding affinity and subtype-selectivity at neuronal nicotinic acetylcholine receptors. […] The binding affinity ratios for a ligand, calculated from its affinities at an α subunit paired with either the β2 osubunit or the β4 subunit, represents a measure of the selectivity of that ligand with regard to the β subunits.

Assay [2] deals with T2, α3β2 nAChR subtype (Rattus norvegicus, UniProt P04757+P12390).
T2 construct: expressed in transfected cells
The assay can be described thus: biochemical. The class given is binding.
Text: as §1

In assay [3] the target is T3, α4β4 nAChR subtype (Rattus norvegicus, UniProt P09483+P12392).
T3 construct: expressed in transfected cells
Nature of the assay: biochemical. It counts as binding.
Text: as §1

For assay [4], the target named is T4, α4β2 nAChR subtype (Rattus norvegicus, UniProt P09483+P12390).
T4 construct: expressed in transfected cells
Nature of the assay: biochemical. The class given is binding. Particulars: for more selective for α4β2 over α3β4 than the corresponding parent compounds 7, 8, and 2: text b210.
Text: as §1

Assay [5] concerns the target T5, α2β4 nAChR subtype (Rattus norvegicus, UniProt P12389+P12392).
T5 construct: expressed in transfected cells
Nature of the assay: biochemical. It counts as binding.
Text: as §1

Assay [6] addresses T6, α2β2 nAChR subtype (Rattus norvegicus, UniProt P12389+P12390).
T6 construct: expressed in transfected cells
Nature of the assay: biochemical. The class given is binding.
Text: as §1

The target in assay [7] is T7, receptors in rat forebrain (mainly α4β2) (Rattus norvegicus, UniProt P09483+P12390).
T7 construct: from tissue; host or cells: rat forebrain homogenate
The class given is binding. As to conditions: Table 6, [3H]-EB 0.099 nM, 0.091 nM, n = 1.

In assay [8] the target is T7, receptors in rat forebrain (mainly α4β2). Nature of the assay: biochemical. The class given is binding.
For assay [9], the system named is receptors in rat forebrain (mainly α4β2). Nature of the assay: biochemical. It counts as binding. As to conditions: Table 3; ratio of the corresponding Ki values.
For assay [10] the following is noted: background b17; approximate; cited from earlier work.
Setting [11] is: Table 5, rat nAChR subtypes, read-out: Ki α3β4.
Where [12] appears, read: Table 6, [3H]-EB 0.099 nM, 0.091 nM, ligand 0.00197-100 μM, n = 1, read-out: Ki α3β4.
Where [13] appears, read: Table 5, rat nAChR subtypes, read-out: Ki α3β2.
Where [14] appears, read: Table 6, [3H]-EB 0.099 nM, 0.091 nM, ligand 0.00197-100 μM, n = 1, read-out: Ki α3β2.
Setting [15] is: Table 5, rat nAChR subtypes, read-out: Ki α4β4.
The mark [16] stands for this setting: Table 6, [3H]-EB 0.099 nM, 0.091 nM, ligand 0.00197-100 μM, n = 1, read-out: Ki α4β4.
The mark [17] stands for this setting: Table 5, rat nAChR subtypes, read-out: Ki α4β2.
The mark [18] stands for this setting: Table 6, [3H]-EB 0.099 nM, 0.091 nM, ligand 0.00197-100 μM, n = 1, read-out: Ki α4β2.
Setting [19] is: Table 5, rat nAChR subtypes, read-out: Ki α2β4.
[20] abbreviates: Table 6, [3H]-EB 0.099 nM, 0.091 nM, ligand 0.00197-100 μM, n = 1, read-out: Ki α2β4.
The mark [21] stands for this setting: Table 5, rat nAChR subtypes, read-out: Ki α2β2.
Setting [22] is: Table 6, [3H]-EB 0.099 nM, 0.091 nM, ligand 0.00197-100 μM, n = 1, read-out: Ki α2β2.
Setting [23] is: Table 5, *Rat forebrain, mainly α4β2, read-out: Ki α4β2*.
Where [24] appears, read: Table 3, mean of 3 independent measurements, read-out: Ki α3β4.
Setting [25] is: Table 3, mean of 3 independent measurements, read-out: Ki α3β2.
Where [26] appears, read: Table 3, mean of 3 independent measurements, read-out: Ki α4β4.
The mark [27] stands for this setting: Table 3, mean of 3 independent measurements, read-out: Ki α4β2.
Setting [28] is: Table 3, mean of 3 independent measurements, read-out: Ki α2β4.
The mark [29] stands for this setting: Table 3, mean of 3 independent measurements, read-out: Ki α2β2.
Where [30] appears, read: Table 3, mean of 3 independent measurements, read-out: Ki Forebrain.

For orientation: pKi means the Ki on a negative log10 scale, so that one unit is a factor of ten.

Each structure is given as a SMILES string. pKi: −log10 of the molar value. Where two headings read alike, the source gives them in different places.

T5 sequence (P12389 28-511): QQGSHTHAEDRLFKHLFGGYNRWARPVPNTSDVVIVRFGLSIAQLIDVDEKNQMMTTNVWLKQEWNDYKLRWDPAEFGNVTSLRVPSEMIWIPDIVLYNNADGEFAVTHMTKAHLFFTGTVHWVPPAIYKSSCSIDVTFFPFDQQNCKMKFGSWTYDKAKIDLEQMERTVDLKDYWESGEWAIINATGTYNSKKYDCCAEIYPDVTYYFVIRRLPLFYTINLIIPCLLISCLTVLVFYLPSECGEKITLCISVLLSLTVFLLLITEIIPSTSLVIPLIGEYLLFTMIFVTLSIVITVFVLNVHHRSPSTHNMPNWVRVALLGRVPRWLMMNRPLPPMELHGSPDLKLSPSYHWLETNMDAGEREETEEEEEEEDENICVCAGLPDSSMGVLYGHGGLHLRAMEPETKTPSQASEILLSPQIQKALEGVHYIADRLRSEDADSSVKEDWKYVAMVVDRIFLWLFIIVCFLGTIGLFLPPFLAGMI
T5 sequence (P12392 21-495): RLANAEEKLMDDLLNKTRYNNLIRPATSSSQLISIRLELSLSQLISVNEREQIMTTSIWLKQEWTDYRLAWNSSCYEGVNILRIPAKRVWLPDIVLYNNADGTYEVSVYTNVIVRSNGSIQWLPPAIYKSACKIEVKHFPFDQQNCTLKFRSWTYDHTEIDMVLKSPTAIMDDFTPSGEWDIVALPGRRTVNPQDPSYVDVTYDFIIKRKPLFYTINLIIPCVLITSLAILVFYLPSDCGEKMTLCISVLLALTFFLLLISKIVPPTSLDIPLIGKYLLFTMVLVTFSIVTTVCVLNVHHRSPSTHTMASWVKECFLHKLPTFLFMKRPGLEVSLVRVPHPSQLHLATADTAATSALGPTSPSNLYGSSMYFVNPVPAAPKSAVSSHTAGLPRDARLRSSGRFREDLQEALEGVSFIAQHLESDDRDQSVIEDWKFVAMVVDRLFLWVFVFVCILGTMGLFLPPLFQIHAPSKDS
T3 sequence (P12392 21-495): as above
T3 sequence (P09483 31-630): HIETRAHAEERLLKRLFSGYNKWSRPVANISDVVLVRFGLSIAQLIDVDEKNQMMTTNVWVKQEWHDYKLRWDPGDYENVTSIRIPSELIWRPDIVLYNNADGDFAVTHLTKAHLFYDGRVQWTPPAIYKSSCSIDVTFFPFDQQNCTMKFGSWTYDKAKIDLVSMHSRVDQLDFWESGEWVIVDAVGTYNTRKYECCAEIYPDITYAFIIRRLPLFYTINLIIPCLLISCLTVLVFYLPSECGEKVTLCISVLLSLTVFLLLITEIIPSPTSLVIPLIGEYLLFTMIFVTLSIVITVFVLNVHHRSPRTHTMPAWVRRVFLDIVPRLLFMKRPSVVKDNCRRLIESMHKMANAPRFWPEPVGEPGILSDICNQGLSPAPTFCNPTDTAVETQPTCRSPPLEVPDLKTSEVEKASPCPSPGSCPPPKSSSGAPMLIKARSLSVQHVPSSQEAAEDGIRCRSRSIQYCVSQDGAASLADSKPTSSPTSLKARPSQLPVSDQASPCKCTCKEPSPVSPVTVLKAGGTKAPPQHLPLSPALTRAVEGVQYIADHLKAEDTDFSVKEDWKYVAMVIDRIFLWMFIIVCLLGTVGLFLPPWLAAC
T7 sequence (P09483 31-630): as above
T7 sequence (P12390 25-500): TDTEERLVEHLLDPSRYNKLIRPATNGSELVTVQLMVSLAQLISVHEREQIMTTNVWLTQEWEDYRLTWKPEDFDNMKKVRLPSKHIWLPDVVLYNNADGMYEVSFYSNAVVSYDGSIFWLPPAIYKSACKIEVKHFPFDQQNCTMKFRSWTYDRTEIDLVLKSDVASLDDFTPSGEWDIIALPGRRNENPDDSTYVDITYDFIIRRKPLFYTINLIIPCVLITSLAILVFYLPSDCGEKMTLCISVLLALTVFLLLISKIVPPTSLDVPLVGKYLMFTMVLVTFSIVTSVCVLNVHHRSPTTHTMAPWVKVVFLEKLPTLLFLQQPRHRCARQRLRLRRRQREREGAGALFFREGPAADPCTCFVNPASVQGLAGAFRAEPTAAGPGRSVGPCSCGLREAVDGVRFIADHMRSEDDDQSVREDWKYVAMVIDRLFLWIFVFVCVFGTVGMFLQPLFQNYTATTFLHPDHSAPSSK
T1 sequence (P04757 26-499): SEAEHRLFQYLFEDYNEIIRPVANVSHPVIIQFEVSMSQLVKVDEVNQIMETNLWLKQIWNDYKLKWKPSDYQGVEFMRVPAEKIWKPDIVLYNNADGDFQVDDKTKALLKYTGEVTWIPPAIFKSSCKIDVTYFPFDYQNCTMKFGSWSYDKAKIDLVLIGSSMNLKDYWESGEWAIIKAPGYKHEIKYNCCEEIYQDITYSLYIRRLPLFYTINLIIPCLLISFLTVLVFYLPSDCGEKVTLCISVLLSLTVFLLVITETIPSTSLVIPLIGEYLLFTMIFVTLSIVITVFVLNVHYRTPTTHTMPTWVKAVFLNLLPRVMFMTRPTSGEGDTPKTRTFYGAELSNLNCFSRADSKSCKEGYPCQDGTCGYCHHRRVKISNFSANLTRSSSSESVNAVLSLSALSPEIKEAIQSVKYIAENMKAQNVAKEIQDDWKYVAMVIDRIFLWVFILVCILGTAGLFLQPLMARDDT
T1 sequence (P12392 21-495): as the sequence (P12392 21-495) above
T4 sequence (P12390 25-500): as the sequence (P12390 25-500) above
T4 sequence (P09483 31-630): as the sequence (P09483 31-630) above
T2 sequence (P12390 25-500): as the sequence (P12390 25-500) above
T2 sequence (P04757 26-499): as the sequence (P04757 26-499) above
T6 sequence (P12390 25-500): as the sequence (P12390 25-500) above
T6 sequence (P12389 28-511): as the sequence (P12389 28-511) above

Turning to `CN1CCC[C@H]1COc1cncc(CCCCCCO)c1` [Ligand 19, 5-(6-Hydroxy-1-hexanyl)-3-(1-methyl-2(S) -pyrrolidinylmethoxy)pyridine], the pKi in assay [1] (setting [11]) was 4.70; in [1] (setting [12]) it was 4.70; in assay [2] (setting [13]) it was 7.87; in assay [2] (setting [14]), 7.87; in assay [3] (setting [15]), 6.01; in assay [3] (setting [16]), 6.01. Besides, the negative logarithm of the Ki (pKi) in assay [4] (setting [17]) was 9.12; in assay [4] (setting [18]) it was 9.12; in assay [5] (setting [19]) it was 5.94; in assay [5] (setting [20]), 5.94; in assay [6] (setting [21]) it was 8.48; in [6] (setting [22]), 8.48. Moreover, the negative-log Ki (pKi) in [7] and in [8] (setting [23]) was 8.27 in each case.
On to `CN1CCC[C@H]1COc1cncc(C#CCO)c1` [Ligand 14, 5-(3-Hydroxy-1-propargyl)-3-(1-methyl-2(S)-pyrrolidinylmethoxy)pyridine], for which the negative-log Ki (pKi) in [1] (setting [11]) was 4.74; in [1] (setting [12]), 4.74; in [2] (setting [13]), 8.12; in assay [2] (setting [14]), 8.12; in assay [3] (setting [15]), 5.77; in assay [3] (setting [16]) it was 5.77. Also, the negative logarithm of the Ki (pKi) in assay [4] (setting [17]) is 9.02; in assay [4] (setting [18]), 9.02; in [5] (setting [19]), 5.73; in assay [5] (setting [20]) it was 5.73; in assay [6] (setting [21]) it was 8.61; in assay [6] (setting [22]), 8.61. The pKi in assay [7] and in assay [8] (setting [23]) was 8.50 in each case.
`OCCCCC#Cc1ccc(C2CC3CCC2N3)cn1` (stereo not shown) [Ligand 34]: the pKi in assay [1] (Ki α3β4, Table 3, mean of 3 independent measurements) was 7.02; in assay [2] (Ki α3β2, Table 3, mean of 3 independent measurements), 7.70; in [3] (Ki α4β4, Table 3, mean of 3 independent measurements), 7.21; in [4] (Ki α4β2, Table 3, mean of 3 independent measurements) it was 7.17; in assay [5] (Ki α2β4, Table 3, mean of 3 independent measurements) it was 7.17; in [6] (Ki α2β2, Table 3, mean of 3 independent measurements), 7.77. This compound gave a negative-log Ki (pKi) in [8] (Ki Forebrain, Table 3, mean of 3 independent measurements) of 7.28. In addition, the “folds lower binding affinities than epibatidine at the nAChRs” value in assay [4] (text b208) is on record as 200-1000 folds. The “subtype selectivity among the neuronal nAChRs” value in assay [4] (text b208) is “less than 6 fold”. Further, in assay [9], the “Affinity ratio (α3β4/Forbrain)” value is 2.
In the case of `FCCCCC#Cc1cncc(OC[C@@H]2CCN2)c1` [Ligand 41], the “affinities for α4β2 nAChR subtype (in words)” value in assay [4] is on record as “subnanomolar”. The “Affinity ratio (α3β4/Forbrain)” value in assay [9] is on record as 15,166.
As for `CN1CCC[C@H]1COc1cncc(C#CCCCCCCCCO)c1` [Ligand 17, 5-(10-Hydroxy-1-decynyl)-3-(1-methyl-2(S) -pyrrolidinylmethoxy)pyridine], the negative-log Ki (pKi) in assay [1] (setting [11]) was 4.20; in assay [1] (setting [12]) it was 4.20; in assay [2] (setting [13]), 7.28; in assay [2] (setting [14]), 7.28; in [3] (setting [15]) it was 5.45; in assay [3] (setting [16]), 5.45. In addition, the negative-log Ki (pKi) in [4] (setting [17]) was 8.19; in [4] (setting [18]) it was 8.19; in [5] (setting [19]) it was 5.11; in [5] (setting [20]), 5.11; in [6] (setting [21]) it was 7.57; in assay [6] (setting [22]), 7.57. The negative-log Ki (pKi) in [7] and in [8] (setting [23]) was 7.66 throughout.
For the compound `OCCCCC#Cc1cncc(OC[C@@H]2CCN2)c1` [Ligand 26], the “selectivity at α4β2 vs ganglionic α3β4 receptors” value in [4] (text b206) is 54,000 fold. In assay [4], the “more selective for α4β2 over α3β4 than the corresponding parent compounds 7, 8, and 2” value was 2 orders of magnitude. Also, in assay [9], the “Affinity ratio (α3β4/Forbrain)” value is 53,778.
For `C#Cc1cncc(OC[C@@H]2CCCN2C)c1` [Ligand 18, 5-(1-Ethynyl)-3-(1-methyl-2(S)-pyrrolidinylmethoxy)pyridine], the negative-log Ki (pKi) in [1] (setting [11]) is 5.51; in assay [1] (setting [12]), 5.51; in assay [2] (setting [13]) it was 7.97; in [2] (setting [14]), 7.97; in [3] (setting [15]), 6.33; in assay [3] (setting [16]) it was 6.33. Besides, the negative-log Ki (pKi) in assay [4] (setting [17]) is 8.99; in assay [4] (setting [18]), 8.99; in assay [5] (setting [19]), 6.36; in [5] (setting [20]) it was 6.36; in assay [6] (setting [21]), 9.12; in [6] (setting [22]), 9.13. For the same compound, the negative-log Ki (pKi) in assay [7] and in [8] (setting [23]) was 8.44 throughout.
Consider `OCCCCC#Cc1cncc(OC[C@@H]2CCCN2)c1` [Ligand 27], for which the negative-log Ki (pKi) in [1] (setting [24]) is 4.79; in assay [2] (setting [25]), 8.57; in [3] (setting [26]), 6.11; in [4] (setting [27]), 9.18; in [5] (setting [28]) it was 6.08; in assay [6] (setting [29]), 8.82. In assay [8] (setting [30]), the pKi was 8.94. For the same compound, the “more selective for α4β2 over α3β4 than the corresponding parent compounds 7, 8, and 2” value in [4] is on record as 2 orders of magnitude. The “Affinity ratio (α3β4/Forbrain)” value in assay [9] is listed as 14,000.
On to `FCCCCC#Cc1cncc(OC[C@@H]2CCCN2)c1` [Ligand 42], for which the pKi is 5.12 in [1] (setting [24]); 8.28 in assay [2] (setting [25]); 6.14 in [3] (setting [26]); 9.04 in [4] (setting [27]); 6.17 in assay [5] (setting [28]); 8.46 in assay [6] (setting [29]). For the same compound, in assay [8] (setting [30]), the negative logarithm of the Ki (pKi) is 8.46. In addition, the “affinities for α4β2 nAChR subtype (in words)” value in assay [4] is listed as “subnanomolar”. The “Affinity ratio (α3β4/Forbrain)” value in assay [9] is recorded as 2,197.
Consider `CN1CCC[C@H]1COc1cncc(C#CC(C)(C)O)c1` [Ligand 15, 5-(3-Hydroxy-3-methyl-1-butynyl)-3-(1-methyl-2(S)pyrrolidinylmethoxy)pyridine], for which the pKi in assay [1] (setting [11]) was 4.49; in assay [1] (setting [12]), 4.49; in assay [2] (setting [13]), 7.71; in assay [2] (setting [14]), 7.71; in assay [3] (setting [15]) it was 5.30; in [3] (setting [16]), 5.30. The negative logarithm of the Ki (pKi) is 8.87 in [4] (setting [17]); 8.87 in assay [4] (setting [18]); 5.23 in assay [5] (setting [19]); 5.23 in assay [5] (setting [20]); 8.71 in [6] (setting [21]); 8.71 in assay [6] (setting [22]). Further, the pKi in assay [7] and in assay [8] (setting [23]) was 8.08 in each case.
In the case of `Clc1ccc(C2CC3CCC2N3)cn1` (racemic) [Epibatidine, 2-exo-(2-Chloro-5-pyridyl)-7-azabicyclo[2.2.1]heptane], the “analgesic potency, times that of morphine” value in [10] is approximately 500 times.
For the compound `CN1CCC[C@H]1COc1cncc(C#CCCCCO)c1` [Ligand 16, 5-(6-Hydroxy-1-hexynyl)-3-(1-methyl-2(S) -pyrrolidinylmethoxy)pyridine], the negative-log Ki (pKi) in [1] (setting [11]) was 4.40; in [1] (setting [12]) it was 4.40; in [2] (setting [13]) it was 7.90; in assay [2] (setting [14]) it was 7.90; in assay [3] (setting [15]), 5.90; in [3] (setting [16]), 5.90. Moreover, the negative logarithm of the Ki (pKi) in assay [4] (setting [17]) is 9.09; in [4] (setting [18]), 9.09; in [5] (setting [19]), 5.49; in [5] (setting [20]) it was 5.49; in assay [6] (setting [21]), 8.54; in [6] (setting [22]) it was 8.54. In addition, the pKi in assay [7] and in [8] (setting [23]) was 8.45 in each case.

These data come from patent publication US8030300B2, “Ligands for nicotinic acetylcholine receptors, and methods of making and using them” (priority 2003, dated 2011).
